In patent publication US20080166805A1, “Culturing human cells and tissues in an N-glycolylneuraminic acid-free environment” (The Regents of the University of California, priority 2005, published 2008):

Assays:
Caco-2 cells [1] = assay: Competition of free Neu5Ac with free Neu5Gc for incorporation into Caco-2 cells; type: cell-based, human
Description: (§1) Neu5Gc and ManNGc Feeding Experiment—Neu5Ac, Neu5Gc or ManNGc were dried, dissolved in the appropriate media supplemented with heat-inactivated human serum, sterilized using a Spin-X® (Corning Inc., Corning, N.Y.) and then added to the cells. The pH of the media containing Sia was adjusted to neutrality using sterilized 1M NaOH before starting the feeding experiment. Cells were cultured in the presence of up to 3 mM free Sia or ManNGc for 1 or 3 days at 37° C. At the end of the feeding, cells were washed with cold PBS, harvested either by scraping or with 2 mM EDTA for fibroblasts, and washed again with cold PBS prior to fractionation.
Fractionation of the Labeled Cells—Washed cell pellets were sonicated into 500 μL of 20 mM sodium phosphate buffer or 20 mM Tris-HCl, pH 7.5, using 4×15 second pulses of a sonicator cell disrupter, model Some Dismembrator (Fisher Scientific, Hampton, N.J.) at a probe setting of 3. The sonicate was centrifuged at 75×g for 15 min., and the pellet obtained consisted primarily of nuclei and unbroken cells. The pellet contained <5% of the incorporated sialic acid as determined using a radioactive tracer (data not shown.) The supernatant was therefore considered as the “total homogenate” fraction. A portion (20%) of the “total homogenate” fraction was taken for protein quantification and Sia analysis by DMB derivatization and HPLC analysis (as discussed below.) The remainder was centrifuged at 100,000×g for 1 h. The resulting pellet, called the “membrane” fraction, was then resuspended by sonication (15 sec.) in 200 μl of sodium acetate buffer, pH 5.5. The 100,000×g supernatant, called the “soluble” fraction was adjusted to 90% ethanol using absolute ice-cold ethanol, and placed overnight at −20° C. The flocculant precipitate, which represents the “soluble protein” fraction, was washed 3 times with 90% ice-cold ethanol and then resuspended in 200 μl of water. The supernatant fluid representing the cytosolic low molecular weight (LMW) fraction was dried and brought up in 100 μL with water prior to Sia analysis. All the Sias in these fractions were released with mild acid hydrolysis if necessary and then analyzed by HPLC after DMB derivatization. Protein quantification was performed on the total homogenate, membrane and soluble protein fractions by using the BCA protein assay kit from Pierce (Rockford, Ill.) In some experiments, the resulting data obtained for the Sia bound to the membrane fraction and to the soluble proteins were pooled and presented here as a High Molecular Weight (HMW) fraction.
Sialic Acid Release, DMB Derivatization and HPLC Analysis—The bound Sias from the total homogenate, membrane and soluble protein fractions were released using 2M acetic acid hydrolysis, 3 h. at 80° C. The released Sias, or free Sias, contained in the soluble LMW fraction were passed through a Microcon® YM-10 filter (Millipore, Bedford, Mass.) prior to DMB derivatization, which was done according to Hara et al., 1989. DMB-Sia derivatives from the different fractions were then analyzed by HPLC using a C18 column (Microsorb Mv-TM 100 A, Varian, Palo Alto, Calif.) Isocratic elution was achieved using 7% methanol, 8% acetonitrile in water during 50 min. at 0.9 ml/min flow. The eluant was monitored by fluorescence.
Quantification of Sias—For all HPLC chromatograms, the quantification of Sias was done by comparison with known quantities of DMB derivatized Neu5Gc and Neu5Ac used as standards and then reported in terms of pmoles of Sia. For total homogenate, membrane and cytosolic protein fractions, this number was expressed per mg of protein. Due to minor sample-to-sample variations in amounts and recoveries, the data in the Figures is presented as percent of Neu5Gc over total Sias, rather than as absolute amounts.

[2] = tested on: human LB EBV-transformed lymphoblasts; assay: Neu5Gc/Neu5Ac feeding experiment, human EBV-transformed lymphoblasts; type: cell-based; conditions: human lymphoblasts fed 3 mM Neu5Ac for 3 days
Description: (§2) Cell Culture—Caco-2 cells were propagated in alpha-MEM containing GLUTAMAX™ (Invitrogen, San Diego, Calif.) and a mixture of ribonucleosides and deoxyribonucleosides (Gibco/Invitrogen, San Diego, Calif.) supplemented with 20% FCS. All the fibroblast cell lines and CHO-K1 cells were cultured in the same media supplemented respectively with 15% non-heat inactivated FCS or 10% heat inactivated FCS. Chimpanzee Fred and human […] EBV-transformed lymphoblasts were cultured in RPMI-1640 (Gibco/Invitrogen, San Diego, Calif.) supplemented with 10% heat inactivated FCS or 15% human serum. All of the cultures were maintained at 37° C., 5% CO2 atmosphere. In order to deplete any remaining Neu5Gc from FCS, the cells were split and cultured prior to Neu5Gc feeding experiments for at least 4 days in alpha-MEM supplemented with an adequate percentage of heat-inactivated premium human serum instead of FCS. The cells were then maintained under the same conditions during the whole feeding experiment. The human serum was heat inactivated at 56° C. for 30 min. before use.
as §1, with “At the end of the feeding, cells were washed with cold PBS, harvested either by scraping or with 2 mM EDTA for fibroblasts, and washed again with cold PBS prior to fractionation.” left out
(§3) Fractionation of the Labeled Cells—Washed cell pellets were sonicated into 500 μL of 20 mM sodium phosphate buffer or 20 mM Tris-HCl, pH 7.5, using 4×15 second pulses of a sonicator cell disrupter, model Some Dismembrator (Fisher Scientific, Hampton, N.J.) at a probe setting of 3. […] The pellet contained <5% of the incorporated sialic acid as determined using a radioactive tracer (data not shown.) The supernatant was therefore considered as the “total homogenate” fraction. A portion (20%) of the “total homogenate” fraction was taken for protein quantification and Sia analysis by DMB derivatization and HPLC analysis (as discussed below.) The remainder was centrifuged at 100,000×g for 1 h. […] All the Sias in these fractions were released with mild acid hydrolysis if necessary and then analyzed by HPLC after DMB derivatization. Protein quantification was performed on the total homogenate, membrane and soluble protein fractions by using the BCA protein assay kit from Pierce (Rockford, Ill.) In some experiments, the resulting data obtained for the Sia bound to the membrane fraction and to the soluble proteins were pooled and presented here as a High Molecular Weight (HMW) fraction. […]

chimpanzee lymphoblasts = assay: Neu5Gc/Neu5Ac feeding experiment, chimpanzee EBV-transformed lymphoblasts; type: cell-based; conditions: chimpanzee lymphoblasts fed 3 mM Neu5Ac for 3 days
Description: as §2
as §1, with “At the end of the feeding, cells were washed with cold PBS, harvested either by scraping or with 2 mM EDTA for fibroblasts, and washed again with cold PBS prior to fractionation.” left out
as §3

Caco-2 cells [3] = assay: Endocytosis inhibition experiments (Neu5Gc uptake in Caco-2 cells); type: cell-based, human; conditions: 2 h pre-treatment with drug, then 3 mM Neu5Gc
Description: The sonicate was centrifuged at 75×g for 15 min., and the pellet obtained consisted primarily of nuclei and unbroken cells. […] A portion (20%) of the “total homogenate” fraction was taken for protein quantification and Sia analysis by DMB derivatization and HPLC analysis (as discussed below.) The remainder was centrifuged at 100,000×g for 1 h. The resulting pellet, called the “membrane” fraction, was then resuspended by sonication (15 sec.) in 200 μl of sodium acetate buffer, pH 5.5. The 100,000×g supernatant, called the “soluble” fraction was adjusted to 90% ethanol using absolute ice-cold ethanol, and placed overnight at −20° C. The flocculant precipitate, which represents the “soluble protein” fraction, was washed 3 times with 90% ice-cold ethanol and then resuspended in 200 μl of water. The supernatant fluid representing the cytosolic low molecular weight (LMW) fraction was dried and brought up in 100 μL with water prior to Sia analysis. All the Sias in these fractions were released with mild acid hydrolysis if necessary and then analyzed by HPLC after DMB derivatization. Protein quantification was performed on the total homogenate, membrane and soluble protein fractions by using the BCA protein assay kit from Pierce (Rockford, Ill.) In some experiments, the resulting data obtained for the Sia bound to the membrane fraction and to the soluble proteins were pooled and presented here as a High Molecular Weight (HMW) fraction. Sialic Acid Release, DMB Derivatization and HPLC Analysis—The bound Sias from the total homogenate, membrane and soluble protein fractions were released using 2M acetic acid hydrolysis, 3 h. at 80° C. The released Sias, or free Sias, contained in the soluble LMW fraction were passed through a Microcon® YM-10 filter (Millipore, Bedford, Mass.) prior to DMB derivatization, which was done according to Hara et al., 1989. […] The eluant was monitored by fluorescence. Quantification of Sias—For all HPLC chromatograms, the quantification of Sias was done by comparison with known quantities of DMB derivatized Neu5Gc and Neu5Ac used as standards and then reported in terms of pmoles of Sia. For total homogenate, membrane and cytosolic protein fractions, this number was expressed per mg of protein. Due to minor sample-to-sample variations in amounts and recoveries, the data in the Figures is presented as percent of Neu5Gc over total Sias, rather than as absolute amounts. Endocytosis Inhibition Experiments—Caco-2 or normal fibroblast cells were split and cultured in alpha-MEM media supplemented respectively with 20% or 15% human serum for 4 days before starting the endocytosis drug inhibition experiments in order to deplete any Neu5Gc derived from FCS. Cells were then pre-treated for 2 h. with the specific inhibitors under the same culture conditions. Fresh media containing the same amount of inhibitor and 3 mM of Neu5Gc was then added to the cells, which were incubated for 16 h or 3 days and finally harvested and fractionated as described above.

[4] = 3 mM Neu5Gc for 3 days in the presence of 15 mM Neu5Ac

Structure (SMILES)	Neu5Gc as percent of total Sia, TH (Caco-2 cells [1]; 3 mM Neu5Gc for 3 days in the presence of 3 mM Neu5Ac) [%]	Neu5Gc as percent of total Sia, TH (Caco-2 cells [1]; [4]) [%]	Neu5Gc as percent of total Sia, membrane-bound fraction (Caco-2 cells [1]; [4])	Neu5Gc as percent of total Sia, membrane-bound fraction (Caco-2 cells [1]; 3 mM Neu5Gc for 3 days with 3 mM Neu5Ac) [%]	Neu5Gc content of the fractions [2]	change of percentages of Neu5Gc in the different fractions (chimpanzee lymphoblasts)	Neu5Gc incorporation into membrane-bound glycoconjugates in the presence of inhibitor (percent of total Sia) (Caco-2 cells [3]) [%]	incorporation of Neu5Gc in the TH fraction in the presence of inhibitor (percent of total Sia) (Caco-2 cells [3]) [%]
CC(=O)N[C@H]1[C@H]([C@H](O)[C@H](O)CO)OC(O)(C(=O)O)C[C@@H]1O (stereo partly drawn) [Neu5Ac, N-acetylneuraminic acid]	48	35	almost to zero	29.9	almost no detectable Neu5Gc	changed only minimally		
CN(C)CCCN1c2ccccc2Sc2ccc(Cl)cc21 [chlorpromazine]							50	
C[C@@H]1[C@H](O)[C@@H](C)/C=C/C=C/CC/C=C/C=C/C=C/C=C/C(O[C@H]2O[C@H](C)[C@@H](O)[C@H](N)[C@@H]2O)CC2O[C@](O)(CC(O)C(O)CCC(O)CC(O)CC(O)CC(=O)O[C@H]1C)CC(O)C2C(=O)O (stereo partly drawn) [nystatin]							44	~65
